Test results reported in patent US11325883B2, “Functionalized N,N-dialkylamino phenyl ethers and their method of use” (Temple University—Of The Commonwealth System of Higher …, priority 2017, dated 2022).

Experiments:
[1] = test system: Gaucher patient fibroblasts (L444P/L444P, GM08760); assay: GPN induced calcium release phenotypic assay on Gaucher patient cells; type: cell-based, human; details: for Maximal % Change in GPN Response / EC50: Gaucher patient cells, 72 hours compound treatment; for Maximal % Change in GPN Response: GPN response with drug/without drug x100; for EC50: Homo sapiens, Fibroblast, 12-point curve in triplicate
Excerpt: Phenotypic Assay: A phenotypic cellular assay utilizing lysosomal storage disorder (LSD) patient derived cells was developed to identify compounds with disease modifying activity to reverse or attenuate the disease phenotype to non-disease levels. […] This functional readout of the LSD diseased state was developed into a high throughput screening assay.
Disruption of lysosomal calcium homeostasis has been linked to the pathophysiology of lysosomal storage disorders including Gaucher disease (Lloyd-Evans, E, Morgan A J, He X, Smith D A, Elliot-Smith E, Sillence D J, Churchill G C, Schuchman E H, Galione A, Platt F M. (2008) Niemann-Pick disease type C1 is a sphingosine storage disease that causes deregulation of lysosomal calcium. Nat Med. 14(11):1247-55. Lloyd-Evans E, Platt F M. (2011) Lysosomal Ca(^2+) homeostasis: role in pathogenesis of lysosomal storage diseases. Cell Calcium. 50(2):200-205. Morgan, A J, Platt, F M, Lloyd-Evans, E and Galione, A (2011) Molecular mechanism of endolysosomal Ca^2+ signaling in health and disease. Biochem. J. 439:349-374.). Calcium release from acidic lysosomal stores can be induced by addition of Gly-Phe-β-napthylamide (GPN), a substrate of cathepsin C, which upon hydrolysis, produces osmotic lysis of lysosomes and release of calcium specifically from lysosomal acidic stores into the cytosol. The increase of intracellular calcium released from lysosomes can be detected with cell membrane permeable calcium sensitive indicators.
(§1) Cells (800 cells/well) were plated with a MultiFlo dispenser (BioTek) and cultured for 24 h at 37° C., 5% CO2. The screening compounds were then added to cells under sterile conditions and continued in culture for 72 hours. Cells were loaded with Screen Quest™ Fluo-8 No Wash Calcium mix (ATT Bio) and analyzed for changes in response to GPN. The data from each well were normalized with basal fluorescence by dividing the maximum fluorescence over the entire real time reading by the initial basal fluorescence. […] EC50 and Hill slope values are determined using a four-parameter dose-response (variable slope) equation in GraphPad Prism. The % change in GPN response is calculated as the ratio of GPN response measured in the presence of drug/GPN response measured in the absence of drug×100. […] The maximal % change in GPN response is calculated as the ratio of GPN response measured in the presence of drug/GPN response measured in the absence of drug×100.
Gaucher patient fibroblasts (Coreill Institute, GM08760) were cultured in EMEM with 15% FBS, 1% Pen/Strep at 37° C./5% CO2. Wild-type patient fibroblasts (Coriell Institute, GM 005659) were used as a control cell line. Cells are plated with a MultiFlo dispenser (800 cells/well in 30 μL of complete growth media) in black/clear bottom 384-well plates and cultured for 24 hours at 37° C., 5% CO2. Compounds of the disclosure are then added to the cells (12 point dose response curve, 150 nM to 30 uM final compound concentration using a 5.0 μL of a 7× stock solution (1.05 μM to 210 μM)) under sterile conditions and continued in culture for 72 hours at 37° C., 5% CO2. For intracellular calcium measurements, media is removed and 20 μL of calcium dye mixture (Screen Quest™ Fluo-8 No Wash Calcium mix, ATT Bioquest) is added to each well, incubated for 30 minutes at 37° C., followed by 22° C. for 30 minutes.

[2] = test system: Wild-type patient fibroblasts (GM 005659); details: wild type cells
Protocol: as §1
Gaucher patient fibroblasts (Coreill Institute, GM08760) were cultured in EMEM with 15% FBS, 1% Pen/Strep at 37° C./5% CO2. Wild-type patient fibroblasts (Coriell Institute, GM 005659) were used as a control cell line. […] The data from each well were normalized with basal fluorescence by dividing the maximum fluorescence over the entire real time reading by the initial basal fluorescence.

SMILES	Maximal % Change in GPN Response [1] [%]	EC50 [1] [nM]	increase in calcium response ([1]; compared with 0.1% DMSO treated Gaucher patient cells) [%]	increase in GPN-induced calcium response [2]
CN(C)CCOc1ccc(C(=O)Cc2ccccc2-c2ccc(F)cc2)cc1 [Example 1, 1-(4-(2-(Dimethylamino)ethoxy)phenyl)-2-(4′-fluoro-[1,1′-biphenyl]-2-yl)ethanone]	250	3600	–	–
CCC(C(=O)c1ccc(OCCN(C)C)cc1)c1ccccc1-c1ccc(F)cc1 (centres unmarked) [Example 5, 1-(4-(2-(dimethylamino)ethoxy)phenyl)-2-(4′-fluoro-[1,1′-biphenyl]-2-yl)butan-1-one]	630	266	–	–
CC/C(=C(\c1ccccc1)c1ccc(OCCN(C)C)cc1)c1ccccc1 [Tamoxifen, reference compound]	–	–	200±50	30+/−20%
CN(C)CCOc1ccc(C(=O)Cc2ccccc2-c2ccccc2Cl)cc1 [Example 2, 2-(2′-Chloro-[1,1′-biphenyl]-2-yl)-1-(4-(2-(dimethylamino)ethoxy)phenyl)ethanone]	160	1800	–	–
CCC(C(=O)c1ccc(OCCNC)cc1)c1ccccc1-c1ccc(F)cc1 (centres unmarked) [Example 7, 2-(4′-fluoro-[1,1′-biphenyl]-2-yl)-1-(4-(2-(methylamino)ethoxy)phenyl)butan-1-one]	515	425	–	–
CN(C)CCOc1ccc(C(=O)C(CC2CC2)c2ccccc2-c2ccc(F)cc2)cc1 (centres unmarked) [Example 4, 3-cyclopropyl-1-(4-(2-(dimethylamino)ethoxy)phenyl)-2-(4′-fluoro-[1,1′-biphenyl]-2-yl)propan-1-one]	360	475	–	–
CNCCOc1ccc(C(=O)C(CC(C)C)c2ccccc2-c2ccc(F)cc2)cc1 (centres unmarked) [Example 9, 2-(4′-fluoro-[1,1′-biphenyl]-2-yl)-4-methyl-1-(4-(2-(methylamino)-ethoxy)phenyl)pentan-1-one]	617	236	–	–
CCCC(C(=O)c1ccc(OCCNC)cc1)c1ccccc1-c1ccc(F)cc1 (centres unmarked) [Example 8, 2-(4′-fluoro-[1,1′-biphenyl]-2-yl)-1-(4-(2-(methylamino)ethoxy)phenyl)pentan-1-one]	330	356	–	–
CC(C)CC(C(=O)c1ccc(OCCN(C)C)cc1)c1ccccc1-c1ccc(F)cc1 (centres unmarked) [Example 3, 1-(4-(2-(dimethylamino)ethoxy)phenyl)-2-(4′-fluoro-[1,1′-biphenyl]-2-yl)-4-methylpentan-1-one]	400	185	–	–
CCCC(C(=O)c1ccc(OCCN(C)C)cc1)c1ccccc1-c1ccc(F)cc1 (centres unmarked) [Example 6, 1-(4-(2-(dimethylamino)ethoxy)phenyl)-2-(4′-fluoro-[1,1′-biphenyl]-2-yl)pentan-1-one]	410	424	–	–
